US20250163038A1, “CBL-B MODULATORS AND USES THEREOF” (Nimbus Clio, Inc., priority 2021, published 2025)
Like-named read-outs stand apart in the source and are kept apart here.

Experiments:
[1] = molecular target: Recombinant human Cbl-b (aa 36-427) (Homo sapiens, UniProt Q13191); assay: Cbl-b Biochemical Assay (TR-FRET); details: read-out: TR-FRET hCbl-b IC50
[2] = molecular target: T1, Recombinant human c-Cbl (aa 47-435) (Homo sapiens, UniProt P22681); assay: c-Cbl Biochemical Assay (TR-FRET); details: hc-Cbl Biochemical Assay (TR-FRET); read-out: TR-FRET hcCbl IC50
T1 sequence (P22681 47-435): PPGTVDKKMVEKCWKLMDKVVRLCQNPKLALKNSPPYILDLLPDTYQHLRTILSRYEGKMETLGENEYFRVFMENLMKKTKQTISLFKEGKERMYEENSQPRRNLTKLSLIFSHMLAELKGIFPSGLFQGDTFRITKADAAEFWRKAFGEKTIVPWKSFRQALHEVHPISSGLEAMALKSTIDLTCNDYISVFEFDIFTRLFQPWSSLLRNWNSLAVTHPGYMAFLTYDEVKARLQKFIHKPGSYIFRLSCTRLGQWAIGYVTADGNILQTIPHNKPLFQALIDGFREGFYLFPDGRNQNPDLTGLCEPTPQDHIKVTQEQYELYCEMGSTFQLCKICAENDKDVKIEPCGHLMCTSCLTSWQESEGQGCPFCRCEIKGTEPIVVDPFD

[3] = tested on: Jurkat (clone E6-1) cells with NFAT luciferase reporter; assay: Jurkat reporter assay (NFAT Luciferase); assay type: cell-based
[4] = Homo sapiens, Jurkat NFAT luciferase reporter cells, anti-CD3 stimulation, 6 hr, read-out: Jurkat NFAT EC50

Recombinant human Cbl-b (aa 36-427), sequence (Q13191 36-427): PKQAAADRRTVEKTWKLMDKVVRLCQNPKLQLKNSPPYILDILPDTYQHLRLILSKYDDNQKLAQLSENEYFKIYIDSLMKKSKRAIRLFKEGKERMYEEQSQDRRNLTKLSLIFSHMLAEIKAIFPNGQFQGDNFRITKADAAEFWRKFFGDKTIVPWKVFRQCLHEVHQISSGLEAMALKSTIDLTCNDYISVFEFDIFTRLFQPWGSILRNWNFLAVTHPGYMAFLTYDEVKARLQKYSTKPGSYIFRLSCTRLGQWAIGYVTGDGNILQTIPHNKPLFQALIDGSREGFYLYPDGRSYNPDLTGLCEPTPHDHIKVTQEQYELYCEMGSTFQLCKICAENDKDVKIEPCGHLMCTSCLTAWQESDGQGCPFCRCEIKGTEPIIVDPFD

Compound	IC50 [1]	IC50 [2]	EC50 [3, 4]	EC50 ([3]; Jurkat NFAT luciferase reporter cells, anti-CD3 stimulation, 6 hr, read-out: Jurkat NFAT EC50)	EC50 ([3]; Homo sapiens, Jurkat, 6 h, read-out: Jurkat NFAT EC50 (μM))
COCCNCc1cc(F)c2oc(-c3cc(-c4ccc(F)cc4-c4nncn4C)cc(C4CC4)n3)nc2c1 [AHB-1, [(2-{6-cyclopropyl-4-[4-fluoro-2-(4-methyl-1,2,4-triazol-3-yl)phenyl]pyridin-2-yl}-7-fluoro-1,3-benzoxazol-5-yl)methyl](2-methoxyethyl)amine]	< 200 nM	< 200 nM	< 0.2 µM		
CO[C@H]1CCCN(Cc2cc(C(F)(F)F)c3oc(-c4cccc(-c5ccc(F)cc5-c5nncn5C)c4)nc3c2)C1 [IU-2, (S)-2-(4′-Fluoro-2′-(4-methyl-4H-1,2,4-triazol-3-yl)-[1,1′-biphenyl]-3-yl)-5-((3-methoxypiperidin-1-yl)methyl)-7-(trifluoromethyl)benzo[d]oxazole]	< 200 nM	< 200 nM	0.2 to 1 µM		
Cn1cnnc1-c1cc(F)ccc1-c1cc(Cl)nc(-c2nc3cc(CN[C@@H]4CCC[C@@H]4O)cc(C(F)(F)F)c3[nH]2)c1 [ADY-2, (1S,2R)-2-{[(2-{6-Chloro-4-[4-fluoro-2-(4-methyl-1,2,4-triazol-3-yl)phenyl]pyridin-2-yl}-7-(trifluoromethyl)-1H-1,3-benzodiazol-5-yl)methyl]amino}cyclopentan-1-ol]	< 200 nM	< 200 nM	< 0.2 µM		
Cn1cnnc1[C@]1(c2cccc(-c3nc4cc(CNCC5CCC5)cc(C(F)(F)F)c4o3)c2)C[C@H](C)C1 [ADZ-1, (Cyclobutylmethyl)[(2-{3-[(1r,3s)-3-methyl-1-(4-methyl-1,2,4-triazol-3-yl)cyclobutyl]phenyl}-7-(trifluoromethyl)-1,3-benzoxazol-5-yl)methyl]amine]	< 200 nM	< 200 nM	0.2 to 1 µM		
Cn1cnnc1-c1cc(F)ccc1-c1cccc(-c2nc3cc(CN[C@H]4CC[C@@H]4O)cc(C(F)(F)F)c3o2)c1 (single isomer, unassigned) [ADH-1]	< 200 nM	< 200 nM		< 0.2 µM	
Cn1cnnc1-c1cc(F)ccc1-c1cccc(-c2nc3cc(CNCC(C)(C)O)cc(C(F)(F)F)c3o2)c1 [AE-2, 1-(((2-(4′-Fluoro-2′-(4-methyl-4H-1,2,4-triazol-3-yl)-[1,1′-biphenyl]-3-yl)-7-(trifluoromethyl)benzo[d]oxazol-5-yl)methyl)amino)-2-methylpropan-2-ol]	< 200 nM	1000 to 10000 nM	0.2 to 1 µM		
C[C@H]1CCCN(Cc2cc(C(F)(F)F)c3oc(-c4cccc(-c5ccc(C#N)cc5-c5nncn5C)c4)nc3c2)C1 [AQ-6, (S)-2-(4-Methyl-4H-1,2,4-triazol-3-yl)-3′-(5-((3-methylpiperidin-1-yl)methyl)-7-(trifluoromethyl)benzo[d]oxazol-2-yl)-[1,1′-biphenyl]-4-carbonitrile]	< 200 nM	1000 to 10000 nM	0.2 to 1 µM		
COCCNCc1cc(C(F)(F)F)c2oc(-c3cc(-c4ccc(F)cc4-c4nncn4C)cc(C4CC4)n3)nc2c1 [ADS-1, N-((2-(6-Cyclopropyl-4-(4-fluoro-2-(4-methyl-4H-1,2,4-triazol-3-yl)phenyl)pyridin-2-yl)-7-(trifluoromethyl)benzo[d]oxazol-5-yl)methyl)-2-methoxyethan-1-amine]	< 200 nM	< 200 nM	< 0.2 µM		
COC(C)(C)CNCc1cc(C(F)(F)F)c2oc(-c3cccc(-c4ccc(F)cc4-c4nncn4C)c3)nc2c1 [AI-2, N-((2-(4′-Fluoro-2′-(4-methyl-4H-1,2,4-triazol-3-yl)-[1,1′-biphenyl]-3-yl)-7-(trifluoromethyl)benzo[d]oxazol-5-yl)methyl)-2-methoxy-2-methylpropan-1-amine]	< 200 nM	1000 to 10000 nM	0.2 to 1 µM		
Cc1c(F)c(CNCC(C)(C)O)cc2nc(-c3cccc(-c4ccc(F)cc4-c4nncn4C)c3)oc12 [AHK-4, 1-[({6-fluoro-2-[4′-fluoro-2′-(4-methyl-1,2,4-triazol-3-yl)-[1,1′-biphenyl]-3-yl]-7-methyl-1,3-benzoxazol-5-yl}methyl)amino]-2-methylpropan-2-ol]	< 200 nM	< 200 nM	< 0.2 µM		
Cn1cnnc1-c1cc(F)ccc1-c1cccc(-c2nc3cc(CN[C@@H]4CCC[C@@H]4O)cc(C#N)c3o2)c1 [HH-3, 2-(4′-Fluoro-2′-(4-methyl-4H-1,2,4-triazol-3-yl)-[1,1′-biphenyl]-3-yl)-5-((((1R,2S)-2-hydroxycyclopentyl)amino)methyl)benzo[d]oxazole-7-carbonitrile]	< 200 nM	< 200 nM			< 0.2 µM

Now from value to compound, other results behind:

IC50 [1]	IC50 [2]	EC50 [3, 4]	EC50 ([3]; Jurkat NFAT luciferase reporter cells, anti-CD3 stimulation, 6 hr, read-out: Jurkat NFAT EC50)	Compound	EC50 ([3]; Homo sapiens, Jurkat, 6 h, read-out: Jurkat NFAT EC50 (μM))
< 200 nM	< 200 nM	< 0.2 µM		C[C@H](N[C@@H]1CCC[C@@H]1O)c1cc(C(F)(F)F)c2oc(-c3cccc(-c4ccc(F)cc4-c4nncn4C)c3)nc2c1 [EA-1, (1S,2R)-2-(((S)-1-(2-(4′-Fluoro-2′-(4-methyl-4H-1,2,4-triazol-3-yl)-[1,1′-biphenyl]-3-yl)-7-(trifluoromethyl)benzo[d]oxazol-5-yl)ethyl)amino)cyclopentan-1-ol]	
< 200 nM	200 to 1000 nM	1 to 10 µM		COCCCNCc1cc(OC)c2oc(-c3cccc(-c4ccc(F)cc4-c4nncn4C)c3)nc2c1 [FY-1, N-((2-(4′-Fluoro-2′-(4-methyl-4H-1,2,4-triazol-3-yl)-[1,1′-biphenyl]-3-yl)-7-methoxybenzo[d]oxazol-5-yl)methyl)-3-methoxypropan-1-amine]	
< 200 nM	< 200 nM	0.2 to 1 µM		Cc1cc(CN(C)[C@@H]2CCC[C@@H]2O)cc2nc(-c3cccc(-c4ccc(F)cc4-c4nncn4C)c3)oc12 [HY-3, (1S,2R)-2-(((2-(4′-Fluoro-2′-(4-methyl-4H-1,2,4-triazol-3-yl)-[1,1′-biphenyl]-3-yl)-7-methylbenzo[d]oxazol-5-yl)methyl)(methyl)amino)cyclopentan-1-ol]	
< 200 nM	200 to 1000 nM	1 to 10 µM		Cn1cnnc1-c1cc(C#N)ccc1-c1cccc(-c2nc3cc(CO)cc(C(F)(F)F)c3o2)c1 [CL-2, 3′-(5-(Hydroxymethyl)-7-(trifluoromethyl)benzo[d]oxazol-2-yl)-2-(4-methyl-4H-1,2,4-triazol-3-yl)-[1,1′-biphenyl]-4-carbonitrile]	
< 200 nM	200 to 1000 nM	1 to 10 µM		Cn1cnnc1-c1cc(F)ccc1-c1cccc(-c2nc3nc(CN[C@@H]4CCC[C@@H]4O)ccc3o2)c1 [IB-7, (1S,2R)-2-(((2-(4′-Fluoro-2′-(4-methyl-4H-1,2,4-triazol-3-yl)-[1,1′-biphenyl]-3-yl)oxazolo[4,5-b]pyridin-5-yl)methyl)amino)cyclopentan-1-ol]	
200 to 1000 nM	200 to 1000 nM	1 to 10 µM		COCCNCc1ccc2oc(-c3cccc(-c4ccc(F)cc4-c4nncn4C)c3)nc2c1 [DZ-1, N-((2-(4′-Fluoro-2′-(4-methyl-4H-1,2,4-triazol-3-yl)-[1,1′-biphenyl]-3-yl)benzo[d]oxazol-5-yl)methyl)-2-methoxyethan-1-amine]	
< 200 nM	< 200 nM	< 0.2 µM		Cn1cnnc1-c1cc(F)ccc1-c1cccc(-c2nc3cc(CN[C@@H]4CCC[C@@H]4O)c(F)c(F)c3o2)c1 [HX-8, (1S,2R)-2-(((6,7-Difluoro-2-(4′-fluoro-2′-(4-methyl-4H-1,2,4-triazol-3-yl)-[1,1′-biphenyl]-3-yl)benzo[d]oxazol-5-yl)methyl)amino)cyclopentan-1-ol]	
< 200 nM	< 200 nM	< 0.2 µM		COC[C@H](C)NCc1cc(C(F)(F)F)c2oc(-c3cccc(-c4ccc(F)cc4-c4nncn4C)c3)nc2c1 [EJ-2, (S)—N-((2-(4′-Fluoro-2′-(4-methyl-4H-1,2,4-triazol-3-yl)-[1,1′-biphenyl]-3-yl)-7-(trifluoromethyl)benzo[d]oxazol-5-yl)methyl)-1-methoxypropan-2-amine]	
< 200 nM	200 to 1000 nM	< 0.2 µM		Cn1cnnc1-c1cc(F)ccc1-c1cccc(-c2nc3cc(CNC4CCC4)c(F)c(F)c3o2)c1 [JF-1, N-((6,7-Difluoro-2-(4′-fluoro-2′-(4-methyl-4H-1,2,4-triazol-3-yl)-[1,1′-biphenyl]-3-yl)benzo[d]oxazol-5-yl)methyl)cyclobutanamine]	
< 200 nM	< 200 nM	< 0.2 µM		COCCNCc1cc2nc(-c3cccc(-c4ccc(F)cc4-c4nncn4C)c3)oc2c(F)c1F [IY-1, N-((6,7-Difluoro-2-(4′-fluoro-2′-(4-methyl-4H-1,2,4-triazol-3-yl)-[1,1′-biphenyl]-3-yl)benzo[d]oxazol-5-yl)methyl)-2-methoxyethan-1-amine]	
< 200 nM	< 200 nM	< 0.2 µM		Cn1cnnc1-c1cc(F)ccc1-c1cccc(-c2nc3cc(CN[C@]4(C)CCC[C@@H]4O)cc(C(F)(F)F)c3o2)c1 (racemic) [IM-8, rac-(1S,2R)-2-(((2-(4′-fluoro-2′-(4-methyl-4H-1,2,4-triazol-3-yl)-[1,1′-biphenyl]-3-yl)-7-(trifluoromethyl)benzo[d]oxazol-5-yl)methyl)amino)-2-methylcyclopentan-1-ol]	
